From patent US7115642B2, “Substituted diphenyl isoxazoles, pyrazoles and oxadiazoles useful for treating HCV infection” (priority 2003, dated 2006)
Where two headings read alike, the source gives them in different places.

Tests used:
[1] = system: HCV replicon (5-2 Luc replicon-comprising cells); assay: HCV replicon assay (luciferase); type: cell-based, Hepatitis C virus; settings: 5-2 Luc replicon cells, luciferase readout, read-out: Replicon IC50
How it was run: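 Huh7-derived 5-2 Luc replicon cells seeded 24 h at 37 °C, then exposed to compound at various concentrations for another 24 h. Luciferase quantified by Bright-Glo luminescence; IC50 = concentration giving 50% reduction in luciferase activity; reported as +/− at a 10 μM cut-off.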

[2] = Cytotoxicity assay (Cell Titer Glo); type: cell-based; settings: human; 48 hr with compound, ATP-dependent Cell Titer Glo assay; read-out: IC50 in cytotoxicity assay (number of viable cells)
Description: Compounds 67, 167, 169, 13, 1, 145, 29, 119, 63, 31, 39, 103, 123, 121, 97, 129, 79, 111, 85, 89, 109, 127, 131, 95, 47, 57, 69, 165, 161, 163, 3, 137, 15, 141, 41, 53, 33, 113, 93, 105, 77, 91, 81, 83, 35, 27, 65, 7, 135, 51, 139, 51, 49, 143, 5, 149, 11, 37, 21, 45, 61, 75, 23, 125, 73, 43, 171 and 101 were tested in a cytotoxicity assay with liver cells including an HCV replicon (5-2 Luc cells, 9–13 cells or Huh-7 cells). In the assay, cells were seeded onto 96-well plates (approx. 7500 cells/well in a volume of 90 μl) and grown for 24 hr at 37° C. On day 2, various concentrations of test compound (in a volume of 10 μl) were added to the wells and the cells were grown for an additional 48 hr at 37° C. On day 4, an ATP-dependent R-Luciferase assay (Cell Titer Glo assay) was performed to determine the number of viable cells.

[3] = system: HCV nonstructural protein NS5A or NS3 in 9–13 replicon cells; assay: Quantitative Western blot assay; type: cell-based, Hepatitis C virus; settings: 9–13 replicon cells, NS5A or NS3 Western blot, read-out: Western IC50
Description: Alternatively, the inhibitory activity of the compounds can be confirmed using a quantitative Western immunoblot assay utilizing antibodies specific for HCV non-structural proteins, such as NS3, NS4A NS5A and NS5B. In one embodiment of this assay, replicon cells are treated with varying concentrations of test compound to determine the concentration of test compound that yields a 50% reduction in the amount of a non-structural protein produced as compared to a control sample (IC50). A single non-structural protein may be quantified or multiple non-structural proteins may be quantified. Antibodies suitable for carrying out such immunoblot assays are available commercially (e.g., from BIODESIGN International, Saco, Me.).
Certain exemplary compounds of the invention were also tested for their ability to inhibit HCV replication using a quantitative Western blot analysis with antibodies specific for the HCV nonstructural protein NS5A or NS3. Actively dividing 9–13 replicon cells were seeded into Swell plates at a density of 1×10^5 cells/well in a volume of 2 ml/well and incubated at 37° C. and 5% CO2 for 24 hours. Various concentrations of test compounds (in a volume of 10 ul) were added to the wells and the cells incubated for another 48 hours. Protein samples were prepared from the cultured cells, resolved on a SDS-PAGE gel and transferred to a nitrocellulose membrane. The membrane was blocked with 5% non-fat milk in PBS for 1 hour at room temperature. Primary antibody (anti NS5A antibody; BIODESIGN International, Saco, Me. or anti NS3 antibody, Rigel) incubation was performed for 1 hour at room temperature, after which the membrane was washed 3 times (for 15 min per time) with PBST (PBS plus 0.1% Tween 20). Horseradish peroxidase conjugated secondary antibody incubation was performed for 1 hour at room temperature and the membrane was washed 3 times (for 15 min per time) with PBST. The membrane was then soaked in substrate solution (Pierce) and exposed to a film or quantified using an imager. In this assay, the amount of test compound that yielded a 50% reduction in the amount of NS5A or NS3 protein translated as compared to a control sample (IC50) was determined.
In TABLE 1, a value of “+” indicates an IC50 of 10 μM or less in the specified assay; a value of “−” indicates an IC50 of greater than 10 μM in the specified assay.

| Compound | IC50 ([1]; Hepatitis C virus) [µM] | IC50 at 48 h [2] [µM] | IC50 ([3]; Hepatitis C virus) [µM] | IC50 [3] [µM] | IC50 [1] [µM] |
| --- | --- | --- | --- | --- | --- |
| O=C(Nc1cc(-c2cc(-c3c(Cl)cccc3Cl)no2)ccc1F)C(Cl)Cl [Compound 1, 2,2-Dichloro-N-[3-[3-(2,6-dichlorophenyl)-5-isoxazolyl]-6-fluorophenyl]Acetamide] | < 10 | > 10 | < 10 | – | – |
| O=C(Nc1cccc(-c2cc(-c3cccc(Cl)c3Cl)no2)c1)C(Cl)Cl [Compound 3, 2,2-Dichloro-N-[3-[3-(2,3-dichlorophenyl)-5-isoxazolyl]phenyl]Acetamide] | > 10 | > 10 | < 10 | – | – |
| O=C(Nc1cccc(-c2cc(-c3c(Cl)cccc3Cl)on2)c1)C(Cl)Cl [Compound 5, 2,2-Dichloro-N-[3-[5-(2,6-dichlorophenyl)-3-isoxazolyl]phenyl]Acetamide] | < 10 | > 10 | < 10 | – | – |
| O=C(Nc1cccc(-c2cc(-c3c(Cl)cccc3N3CCOCC3)no2)c1)C(Cl)Cl [Compound 7, 2,2-Dichloro-N-[3-[3-[2-chloro-6-(N-morpholino)phenyl]-5-isoxazolyl]phenyl]Acetamide] | – | – | – | < 10 | – |
| CSc1cccc(F)c1-c1cc(-c2cccc(NC(=O)C(Cl)Cl)c2)on1 [Compound 11, 2,2-Dichloro-N-[3-[3-(2-fluoro-6-thiomethylphenyl)-5-isoxazolyl]phenyl]Acetamide] | – | – | – | < 10 | < 10 |
| O=C(Nc1ccc(F)c(-c2cc(-c3c(Cl)cccc3Cl)no2)c1)C(Cl)Cl [Compound 13, 2,2-Dichloro-N-[3-[3-(2,6-dichlorophenyl)-5-isoxazolyl]4-fluorophenyl]Acetamide] | < 10 | > 10 | < 10 | – | – |
| O=C(Nc1cccc(-c2cc(-c3c(F)cccc3S(=O)(=O)N3CCOCC3)no2)c1)C(Cl)Cl [Compound 21, 2,2-Dichloro-N-[3-[3-[2-fluoro-(6-N-morpholinosulfamoyl)phenyl]-5-isoxazolyl]-phenyl]Acetamide] | – | – | – | < 10 | < 10 |
| O=C(Nc1cccc(-c2cc(-c3c(N4CCOCC4)cccc3C(F)(F)F)no2)c1)C(Cl)Cl [Compound 37, 2,2-Dichloro-N-[3-[3-[2-(N-morpholino)-6-trifluoromethylphenyl)-5-isoxazolyl]phenyl]Acetamide] | – | – | – | < 10 | < 10 |
| O=C(Nc1cccc(-c2cc(-c3c(Cl)cc(OCCN4CCOCC4)cc3Cl)no2)c1)C(Cl)Cl [Compound 75, 2,2-Dichloro-N-[3-[3-[2,6-dichloro 4-(N-morpholinoethyleneoxy)phenyl]-5-isoxazolyl]-phenyl]Acetamide] | – | – | – | < 10 | > 10 |
| Cc1ccc(C(=O)N2CCN(c3cccc(Cl)c3-c3cc(-c4cccc(NC(=O)C(Cl)Cl)c4)on3)CC2)cc1 [Compound 665] | – | – | – | < 10 | < 10 |
| CC(C)(C)OC(=O)NC1CCN(c2cccc(Cl)c2-c2cc(-c3cccc(NC(=O)C(Cl)Cl)c3)on2)C1 (stereo not drawn) [Compound 671] | – | – | – | < 10 | < 10 |
| CC(C)(C)OC(=O)NC1CCN(c2cccc(Cl)c2-c2cc(-c3cccc(NC(=O)C(Cl)Cl)c3)on2)C1 (stereo not drawn) [Compound 672] | – | – | – | < 10 | < 10 |
| NC1CCN(c2cccc(Cl)c2-c2cc(-c3cccc(NC(=O)C(Cl)Cl)c3)on2)C1 (stereo not drawn) [Compound 673] | – | – | – | < 10 | – |
| NC1CCN(c2cccc(Cl)c2-c2cc(-c3cccc(NC(=O)C(Cl)Cl)c3)on2)C1 (stereo not drawn) [Compound 674] | – | – | – | < 10 | < 10 |
| CN(C)C(=O)NC1CCN(c2cccc(Cl)c2-c2cc(-c3cccc(NC(=O)C(Cl)Cl)c3)on2)C1 (stereo not drawn) [Compound 675] | – | – | – | < 10 | – |
| CN(C)C(=O)NC1CCN(c2cccc(Cl)c2-c2cc(-c3cccc(NC(=O)C(Cl)Cl)c3)on2)C1 (stereo not drawn) [Compound 676] | – | – | – | < 10 | < 10 |
| COC(=O)c1cccc(Cl)c1-c1cc(-c2cccc(NC(=O)C(Cl)Cl)c2)on1 [Compound 680] | – | – | – | < 10 | < 10 |
| CS(=O)(=O)NC1CCN(c2cccc(Cl)c2-c2cc(-c3cccc(NC(=O)C(Cl)Cl)c3)on2)C1 (stereo not drawn) [Compound 682] | – | – | – | < 10 | – |
| O=C(Nc1cccc(-c2cc(-c3c(Cl)cccc3C(=O)N3CCOCC3)no2)c1)C(Cl)Cl [Compound 689] | – | – | – | < 10 | – |

| Compound | IC50 ([1]; Hepatitis C virus) [µM] | IC50 at 48 h [2] [µM] | IC50 ([3]; Hepatitis C virus) [µM] | IC50 [3] [µM] | IC50 [1] [µM] |
| --- | --- | --- | --- | --- | --- |
| O=C(Nc1cccc(-c2cc(-c3c(Cl)cccc3C(=O)N3CCN(c4ccccc4)CC3)no2)c1)C(Cl)Cl [Compound 690] | – | – | – | < 10 | < 10 |
| CN(C)C(=O)c1cccc(Cl)c1-c1cc(-c2cccc(NC(=O)C(Cl)Cl)c2)on1 [Compound 692] | – | – | – | < 10 | < 10 |
| O=C(NCc1ccccn1)c1cccc(Cl)c1-c1cc(-c2cccc(NC(=O)C(Cl)Cl)c2)on1 [Compound 694] | – | – | – | < 10 | < 10 |
| COC(=O)[C@@H](NC(=O)c1cccc(Cl)c1-c1cc(-c2cccc(NC(=O)C(Cl)Cl)c2)on1)C(C)C [Compound 695] | – | – | – | < 10 | > 10 |
| COC(=O)C(NC(=O)c1cccc(Cl)c1-c1cc(-c2cccc(NC(=O)C(Cl)Cl)c2)on1)C(C)C (stereo not drawn) [Compound 696] | – | – | – | < 10 | < 10 |
| O=C(Nc1cccc(-c2cc(-c3c(Cl)cccc3C(=O)N3CCN(Cc4ccccc4)CC3)no2)c1)C(Cl)Cl [Compound 697] | – | – | – | < 10 | > 10 |
| CC(C)(C)OC(=O)N1CCN(C(=O)c2cccc(Cl)c2-c2cc(-c3cccc(NC(=O)C(Cl)Cl)c3)on2)CC1 [Compound 698] | – | – | – | < 10 | > 10 |
| O=C(Nc1cccc(-c2cc(-c3c(Cl)cccc3OC3CCCC3)no2)c1)C(Cl)Cl [Compound 699] | – | – | – | < 10 | < 10 |
| COc1cccc(C(=O)OC(C)(C)C)c1-c1cc(-c2cccc(NC(=O)C(Cl)Cl)c2)on1 [Compound 700] | – | – | – | > 10 | < 10 |
| CC(C)(C)OC(=O)c1cccc(F)c1-c1cc(-c2cccc(NC(=O)C(Cl)Cl)c2)on1 [Compound 701] | – | – | – | < 10 | < 10 |
| COc1cccc(C(=O)O)c1-c1cc(-c2cccc(NC(=O)C(Cl)Cl)c2)on1 [Compound 702] | – | – | – | < 10 | > 10 |
| O=C(O)c1cccc(F)c1-c1cc(-c2cccc(NC(=O)C(Cl)Cl)c2)on1 [Compound 703] | – | – | – | > 10 | > 10 |
| COC(=O)c1cccc(OC)c1-c1cc(-c2cccc(NC(=O)C(Cl)Cl)c2)on1 [Compound 704] | – | – | – | > 10 | > 10 |
| COC(=O)c1cccc(F)c1-c1cc(-c2cccc(NC(=O)C(Cl)Cl)c2)on1 [Compound 705] | – | – | – | < 10 | < 10 |
| CC(C)Oc1cccc(Cl)c1-c1cc(-c2cccc(NC(=O)C(Cl)Cl)c2)on1 [Compound 706] | – | – | – | < 10 | < 10 |
| Cc1oc(=O)oc1COC(=O)c1cccc(Cl)c1-c1cc(-c2cccc(NC(=O)C(Cl)Cl)c2)on1 [Compound 707] | – | – | – | < 10 | < 10 |
| CCOc1cccc(Cl)c1-c1cc(-c2cccc(NC(=O)C(Cl)Cl)c2)on1 [Compound 708] | – | – | – | < 10 | < 10 |
| O=C(Nc1cccc(-c2cc(-c3c(Cl)cccc3OCC3CC3)no2)c1)C(Cl)Cl [Compound 709] | – | – | – | < 10 | < 10 |
| O=C(Nc1cccc(-c2cc(-c3c(Cl)cccc3OC(F)F)no2)c1)C(Cl)Cl [Compound 710] | – | – | – | < 10 | < 10 |
